In brackets after ≈: the same amount, converted by molar mass.
Experiments:
[1] = Solubility in water in the absence of excipients; type: physicochemical; conditions: for solubility thermodynamic: thermodynamic from solid, read-out: equilibrium solubility in water
Protocol: Additionally, a sample of the compound of formula (1) was prepared in water to determine the approximate solubility of the compound in the absence of excipients (e.g., CAPTISOL®). A concentration of approximately 300 mg/mL was achieved, not accounting for the volume contribution of the compound. The pH of the sample was determined to be 2.8, which was adjusted to the target of 4.0 using 0.1 N NaOH. Upon pH adjustment, precipitation of a small amount of solid was observed. […] A similar analysis was performed for the compound of formula (2). The compound of formula (2) has a solubility of approximately 10 mg/mL.

[2] = In vitro stability (half-life) in dog plasma; type: in vitro ADME; conditions: male, dog plasma pH 7.4, anticoagulant, 37° C., read-out: T1/2 (minutes) Dog
Protocol: Compound (1), compound (2), and CXL-1020 were tested for their stability in plasma. The assay system comprised (i) PBS, or plasma from rat, dog or human (at least 3 donors, male, pooled) at pH 7.4, and (ii) for tests conducted in plasma, an anticoagulant (sodium heparin or sodium citrate). Each test compound (5 μM) was incubated in PBS or plasma at 37° C. on a THERMOMIXER® with shaking Three samples (n=3) were taken at each of seven sampling time points: 0, 10, 30, 60, 90, 180 and 360 minutes. The samples were immediately combined with 3 volumes (i.e., 3 times the volume of PBS or plasma) of acetonitrile containing 1% formic acid and an internal standard to terminate the reaction. AB SCIEX API 3000 LC-MS/MS analysis of the test compounds was performed without a standard curve. Half-lives (T1/2) of the test compounds were determined from graphs of the percent remaining values using the peak area response ratio.

dogs [3] = assay: 14-day continuous infusion tolerance study of CXL-1020 in dogs; type: in vivo
Protocol: During in vivo trials of the nitroxyl donor, CXL-1020 (N-hydroxy-2-methanesulfonylbenzene-1-sulfonamide), a 14-day study was conducted to evaluate tolerance in dogs treated with continuous infusions of CXL-1020 at dose rates of up to 90 μg/kg/min. […] To further investigate this undesirable side-effect, a follow-up 14-day study in dogs was initiated.

dogs [4] = assay: 72-hour continuous infusion investigative studies of CXL-1020 in dogs (implanted catheter); type: in vivo; conditions: 72-hour infusion
Protocol: To determine the cause of the inflammation and hind limb swelling, a series of 72-hour continuous infusion investigative studies were conducted over the following 6 months. […] The first site of inflammation, the catheter insertion site, caused the dog hind limb swelling and inflammation observed in the early-terminated follow-up study. Increasing infusate pH from 4 to 6 decreased inflammation, improving the inflammatory profile by approximately 3-fold.

healthy volunteers = assay: 24-hour continuous infusion dose escalation study of CXL-1020 in healthy volunteers; type: in vivo, humans; conditions: forearm vein infusion
Protocol: To determine whether a local phlebitis would occur in humans upon longer duration dosing, a longer duration study was conducted in healthy volunteers. The longer duration study included a dose escalation study in which cohorts of 10 volunteers were to be sequentially administered a 24-hour continuous infusion of CXL-1020 at the dose rates of 10, 20, and 30 μg/kg/min with a safety assessment between each cohort. Each cohort consisted of 2 placebo and 8 active treatments with a sentinel pair of 1 active and 1 placebo followed by the main group of 1 placebo and 7 active treatments. The infusion was via a percutaneous catheter inserted into a forearm vein. The catheter was switched to the contralateral arm after 12 hours of infusion.

[5] = tested on: heart failure canines (microembolization model); assay: Hemodynamic efficacy in canine microembolization heart failure model; type: in vivo, mongrel dogs; conditions: 3 or 10 μg/kg/min infusion, FIG. 3
Protocol: Heart failure was produced using healthy, conditioned, purpose-bred mongrel dogs (20-26 kg) using a sequential microembolization model. Coronary microembolization was performed until LV-ejection fraction (determined angiographically under anesthesia) was approximately 30% or lower. Two weeks were then provided after the last microembolization to ensure stabilization of each animal prior to initiating experiments.
An initial dose-finding study (2-100 μg/kg/min for 40 min) was performed in 3 dogs to identify therapeutically relevant doses of a compound of formula (1). […] Only one dose was studied on a given day, the other at least one-week later, and the order randomized. […]
LV end-systolic volume (ESV) and end-diastolic volumes (EDV) were calculated from ventriculograms using the area-length method. […] LV fractional area of shortening (FAS) was measured from LV short axis view at the level of papillary muscles obtained from 2-dimensional echocardiograms. Measured indexes of LV diastolic function included deceleration time of mitral inflow velocity (DT), ratio of the integral of early mitral inflow velocity (Ei) to velocity during atrial contraction (Ai) (Ei/Ai) and LV end-diastolic circumferential wall stress (EDWS).
Measurements of myocardial oxygen consumption were performed at baseline and at 4 hours after 10 μg/kg/min infusion. […] Oxygen content was determined with a hemoximeter. […]

| Compound | solubility thermodynamic ([1]; water, no excipients) | half-life at 5 μM [2] | dose rate tolerated (dogs [3]) | improvement of the inflammatory profile on increasing infusate pH from 4 to 6 (dogs [4]) | dose rates at which significant undesirable side effects were still demonstrated (dogs [4]; infusate pH 6) | dose rates causing clinical pathology changes consistent with an inflammatory process (dogs [4]; pH 4 formulation, 1:1 molar CXL-1020:CAPTISOL in 5% dextrose) | tolerability at 10 μg/kg/min for 24-hours (healthy volunteers; 10 μg/kg/min) | findings at 20 μg/kg/min for 24-hours (healthy volunteers; 20 μg/kg/min) | hemodynamic activity relative to CXL-1020 [5] | pH of the sample in water ([1]; approximately 300 mg/mL in water before pH adjustment) | solubility ([1]; water without excipients, pH 2.8, thermodynamic from solid, water, no excipients, not accounting for the volume contribution of the compound, read-out: concentration achieved in water) | observed solution concentration by HPLC ([1]; water, after pH adjustment to 4.0 with 0.1 N NaOH) |
| --- | --- | --- | --- | --- | --- | --- | --- | --- | --- | --- | --- | --- |
| CS(=O)(=O)c1cccc(S(=O)(=O)NO)c1 [(2), N-Hydroxy-3-methanesulfonylbenzene-1-sulfonamide] | ~10 mg/mL (≈ 39.8 mM) | 33 min | – | – | – | – | – | – | – | – | – | – |
| CS(=O)(=O)c1ccccc1S(=O)(=O)NO [CXL-1020, N-hydroxy-2-methanesulfonylbenzene-1-sulfonamide] | – | – | 60 µg/kg/min | approximately 3 fold | greater than or equal to 3 μg/kg/min | greater than or equal to 0.03 μg/kg/min | well tolerated | mild findings (either clinical signs and/or changes in clinical pathology) in all 8 subjects consistent with infusion site phlebitis | – | – | – | – |
| Cc1ccc(S(=O)(=O)NO)o1 [Compound (1), N-Hydroxy-5-methylfuran-2-sulfonamide] | > 100 mg/mL | 25 min | – | – | – | – | – | – | comparable hemodynamic activity to CXL-1020 | 2.8 | ≥ 300 mg/mL | 268 mg/mL |

— US9586896B2, “Nitroxyl donors with improved therapeutic index” (Cardioxyl Pharmaceuticals, Inc., priority 2013, dated 2017)
